# Measured values from US20080275134A1, “Methods for Treatment of Retinal Degenerative Disease” (University of Washington, priority 2005, published 2008).
# Key:
# isomerase = target: T1, isomerase (Bos taurus, UniProt Q28175); experiment: isomerase reaction: 11-cis-retinol production by RPE microsomes from all-trans-retinol; type: biochemical, bovine; settings: for IC50 / inhibition of isomerization (in words): RPE microsomes; for IC50: all-trans-retinol substrate, read-out: IC50, inhibition of 11-cis-retinol production; for inhibition of isomerization (in words): in vitro; for lowering of potency by saturation of the C13-14 double bond: relative to the 11-cis- and all-trans-isomers of Ret-NH2
# T1 construct: Purified RPE microsomes were the source of the enzymes; from tissue; host or cells: bovine retinal pigment epithelium microsomes
# T1 sequence (Q28175 2-533 limits assumed): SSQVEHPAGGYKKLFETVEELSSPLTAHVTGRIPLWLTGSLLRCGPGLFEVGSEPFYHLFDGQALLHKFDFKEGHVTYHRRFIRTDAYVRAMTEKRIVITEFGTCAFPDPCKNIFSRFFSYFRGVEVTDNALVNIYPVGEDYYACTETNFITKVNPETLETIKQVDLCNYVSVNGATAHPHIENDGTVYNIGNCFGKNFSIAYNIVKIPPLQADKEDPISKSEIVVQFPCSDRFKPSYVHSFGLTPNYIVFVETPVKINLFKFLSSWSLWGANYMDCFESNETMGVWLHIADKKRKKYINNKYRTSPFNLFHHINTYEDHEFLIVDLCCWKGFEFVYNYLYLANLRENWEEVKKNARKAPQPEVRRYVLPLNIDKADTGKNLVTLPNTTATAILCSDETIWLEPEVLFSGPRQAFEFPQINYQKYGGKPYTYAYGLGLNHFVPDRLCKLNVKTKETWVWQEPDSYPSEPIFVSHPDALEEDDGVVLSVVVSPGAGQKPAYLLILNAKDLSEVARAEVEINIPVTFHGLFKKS
# Description: (§1) To test if 11-cis-retinylamine (11-cis Ret-NH2) affects isomerization and esterification, an in vitro assay was employed. In this assay both of the all-trans-retinyl esters formed in the reaction catalyzed by LRAT and 11-cis-retinol production by isomerase were measured (6). Purified RPE microsomes were the source of the enzymes, and all-trans-retinol was the substrate. […] Inhibition of isomerization by Ret-NH2 is not due to binding of CRALBP or competition with 11-cis-retinol for binding to CRALBP. […] An increased concentration of all-trans-retinol lowered the level of inhibition, as illustrated in FIG. 2B. […] Dixon's and Lineweaver-Burk plots in the standard assay conditions yielded Ki=0.1 μM for Ret-NH2 when all-trans-retinol (KM=0.3 μM) was assumed to be a substrate. […] This estimated value reflects the very potent nature of the inhibition by 11-cis-Ret-NH2.
# Materials—Fresh bovine eyes were obtained from a local slaughterhouse (Schenk Packing Co., Inc., Stanwood, Wash.). Preparation of bovine RPE microsomes was performed according to previously described methods (Stecher et al., J Biol Chem 274:8577-85, 1999). All chemicals were purchased from Sigma-Aldrich (St. Louis, Mo.). 11-cis-Retinal was obtained from Dr. Rosalie Crouch (Charleston, S.C.).
# Reaction conditions for isomerase and LRAT reaction—The isomerase reaction was performed essentially as described previously (Stecher et al., J Biol Chem 274:8577-85, 1999). The reaction was carried out in 10 mM BTP buffer, pH 7.5, 1% BSA, containing 1 mM ATP and 6 μM apo-CRALBP. To investigate inhibition properties of Ret-NH2 and its derivatives, RPE microsomes were preincubated for 5 min in 37° C. with the indicated compound in 10 mM BTP buffer, pH 7.5, 1% BSA, 1 mM ATP prior to addition of apo-CRALBP and all-trans-retinol. Ret-NH2 and its derivatives were delivered to the reaction mixture in 1 μl of DMF, and the same volume of DMF was added to the control reaction. Each experiment was performed three times in duplicate. The average values were used and the standard deviations were calculated.
# [1] = test system: regeneration of vision chromophore (11-cis-retinal); experiment: regeneration of 11-cis-retinal in mouse eyes after gavage and light bleach, HPLC retinoid analysis; type: in vivo; settings: gavage in vegetable oil, 16 hours dark, light stimulated, 5 hours dark
# Description: Mice were gavaged with all-trains-Ret-NH2, exposed to intense light for 20 min, and then allowed to recover in the dark for 5 hours. The total amount of different forms of retinoids in all experiments was unchanged. […] For this experiment mice were treated with both 9-cis-retinol and all-trans-Ret-NH2, and bleached after 24 hours, and were allowed to recover for 5 hours in the dark. The presence of 9-cis-retinal was confirmed in treated animals (see peaks 4 and 4′ in FIG. 4A bottom panel, corresponding to syn- and anti-9-cis-retinal oximes, respectively). 11-cis-Retinal was not reduced and/or esterified after treatment with Ret-NH2. […] This supports the idea that Ret-NH2 is a specific inhibitor of the isomerization reaction.
# A. Chromatographic separation of nonpolar retinoids from WT mouse eyes. Mice were gavaged with all-trans-Ret-NH2 24 hours prior to bleaching for 20 min at 150 cd·m^−2 W in the Ganzfeld chamber. Regeneration of 11-cis-retinal was allowed for 24 hours in the dark, and retinoids were extracted from the eye and separated by normal phase HPLC as described in Materials and Methods. The peaks were identified based on elution time and absorption spectra correspond to the following retinoids: 1, all-trans-retinyl esters; 2,2′, syn- and anti-11-cis-retinal oximes; 3, syn-all-trans-retinal oxime; 4,4′, syn- and anti-9-cis-retinal oximes; 5, all-trans-retinol. B. Changes of 11-cis-retinal oxime levels at increasing doses of all-trans-Ret-NH2 during 5 hours or 24 hours of dark adaptation. Square indicates the level of 11-cis-retinal oximes that was present in mice gavaged with vegetable oil without retinoids just after bleaching, and arrow indicates the increase of visual chromophore during 5 hours of dark adaptation. Triangles correspond to the level of 11-cis-retinal found in the mice gavaged with 50 mg/kg of 13-cis-RA. C and D. Single flash ERG responses of increasing intensity for all-trans-Ret-NH2 treated mice and control mice. Serial responses to increasing flash stimuli were obtained for all-trans-Ret-NH2 treated and control mice for selected intensities (C) and plotted as a function of a-wave and b-wave versus varying light intensities under dark-adapted conditions (D) before bleach and at 5 hours and 24 hours after bleach. The dark-adapted mice were bleached with intense constant illumination (150 cd·m^−2) for 20 min. […] SE bars are shown.
# Chromatographic separation of nonpolar retinoids from WT mouse eyes. Mice were gavaged with 100 mg/kg of all-trans-Ret-NH2 24 hours prior to bleaching. Mice were next exposed to 500 cd m^−2 for 48 min bleaching in the Ganzfeld chamber. Regeneration of 11-cis-retinal was allowed for 24 hours in the dark, and retinoids were extracted from the eye and separated by normal phase HPLC as described in Materials and Methods. The peaks identified based on elution time and absorption spectra correspond to the following retinoids: 1, all-trans-retinyl esters; 2,2′, syn- and anti-1-cis-retinal oximes; 3,3′ syn- and anti-all-trans-retinal oximes; 4, all-trans-retinol.
# Mice were gavaged with the solution of inhibitor in vegetable oil (control—non-treated, RPN—retinylpalmitamide, RAN—retinylacetamide, Ret—NH2-all-trans-retinylamine), kept in dark for 16 hours, then light stimulated and kept in dark for additional 5 hours before their eyes were analyzed.
# Mouse retinoid extraction and analysis—Retinoid analysis was performed under dim red light as described previously (Maeda et al., J. Neurochem 85:944-956, 2003; Van Hooser et al., J Biol Chem 277:19173-82, 2002). Mice were gavaged with retinoids as described previously (Van Hooser et al., J Biol Chem 277:19173-82, 2002).
# CRALBP = CRALBP (Homo sapiens, UniProt P12271); experiment: analysis of retinoids bound to CRALBP isolated from the reaction mixture; type: binding
# Chain of CRALBP (P12271 whole entry, species assumed): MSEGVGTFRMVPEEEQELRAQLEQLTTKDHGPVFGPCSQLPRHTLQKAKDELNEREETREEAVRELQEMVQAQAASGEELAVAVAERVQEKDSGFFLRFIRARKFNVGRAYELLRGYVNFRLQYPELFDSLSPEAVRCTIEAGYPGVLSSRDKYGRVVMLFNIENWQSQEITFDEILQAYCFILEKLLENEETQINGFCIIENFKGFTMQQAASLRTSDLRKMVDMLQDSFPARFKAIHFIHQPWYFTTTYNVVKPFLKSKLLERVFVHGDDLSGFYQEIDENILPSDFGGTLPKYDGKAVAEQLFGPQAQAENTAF
# LRAT = target: T2, LRAT (Bos taurus, UniProt Q9BGL2); experiment: LRAT reaction: formation of all-trans-retinyl esters by RPE microsomes; type: biochemical, bovine; settings: all-trans-retinol substrate
# T2 construct: Purified RPE microsomes were the source of the enzymes; from tissue; host or cells: bovine retinal pigment epithelium microsomes
# T2 sequence (Q9BGL2 1-230): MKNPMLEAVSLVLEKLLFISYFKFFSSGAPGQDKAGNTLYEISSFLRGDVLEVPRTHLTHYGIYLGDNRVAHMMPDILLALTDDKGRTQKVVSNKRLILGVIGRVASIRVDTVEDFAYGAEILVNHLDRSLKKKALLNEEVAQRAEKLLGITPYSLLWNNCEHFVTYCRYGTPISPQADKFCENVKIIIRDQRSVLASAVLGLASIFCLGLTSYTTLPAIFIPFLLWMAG
# Description: as §1
# Materials—Fresh bovine eyes were obtained from a local slaughterhouse (Schenk Packing Co., Inc., Stanwood, Wash.). Preparation of bovine RPE microsomes was performed according to previously described methods (Stecher et al., J Biol Chem 274:8577-85, 1999). […]
# Reaction conditions for isomerase and LRAT reaction—The isomerase reaction was performed essentially as described previously (Stecher et al., J Biol Chem 274:8577-85, 1999). […] The average values were used and the standard deviations were calculated.
# RPE protein(s) = experiment: gel filtration chromatography of DHPC-solubilized RPE microsome proteins with retinoid; type: binding, bovine; settings: for gel filtration elution position (fractions): Superdex 200, native RPE extract, proteins elute in fractions 18-60
# Description: The specificity of Ret-NH2 was further tested by biochemical assays. […] When the RPE microsomes were solubilized with DHPC, the isomerase activity decreased only slightly. Then [^3H]-Ret-NH2 was added to the RPE extract and loaded on a gel filtration column. Proteins were fractionated and eluted between fractions 18 and 60 (FIG. 3A), while the radioactivity was eluted in fractions 36-38. RPE65 was identified by immunoblotting in fractions 23-34 (FIG. 3B). The most abundant proteins in this fraction were identified by mass spectrometry and include glucose phosphate isomerase, D-glyceraldehyde-3-phosphate dehydrogenase, phosphoglycerate mutase, triose phosphate isomerase, enolase, annexin V, calbindin 2, and LRAT. Identification of less abundant proteins is in progress.
# RPE microsomes were solubilized with 10 mM DHPC, incubated with 11,12-di[^3H]-all-trans-Ret-NH2 (1 μM), and loaded on a Superdex 200 column equilibrated with Tris/HCl buffer, pH 7.5, containing 4 mM DHPC. Proteins were eluted with a constant flow rate of 0.4 ml/min. The protein and radioactivity levels of 0.4 ml fractions were examined by SDS-PAGE and scintillation counting (A), and immunoblot with anti-RPE65 and anti-LRAT antibodies (B). The star indicates the fraction associated with maximum radioactivity.
structure (smiles),measurement,setting,value
"CC(C=CC1=C(C)CCCC1(C)C)=CC=CC(C)=CCN (single isomer, unassigned) [13-cis-Ret-NH2, 13-cis-retinylamine]",IC50,isomerase,730 nM
CCCCCCCCCCCCCCCC(=O)NC/C=C(C)/C=C/C=C(C)/C=C/C1=C(C)CCCC1(C)C [N-Retinylpalmitamide],inhibition of isomerization (in words),isomerase,did not inhibit isomerization
same,inhibition of isomerization (in words),isomerase; listed as N-palmitoylretinamide,non-inhibitory
same,inhibition of regeneration of vision chromophore in mice by retinylamides,[1],potent inhibitors of regeneration in mice
same,inhibition of regeneration of vision chromophore in mice by retinylamides,[1]; listed as RPN,same as free retinylamine
"CC1=C(/C=C/C(C)=C/C=C/C(C)CCO)C(C)(C)CCC1 (stereo not drawn) [all-trans-13,14-dihydroretinol, reference compound]",inhibition of isomerization (in words),isomerase,"neither all-trans-thioretinol nor all-trans-13,14-dihydroretinol influenced the isomerization"
"CC(C=CC1=C(C)CCCC1(C)C)=CC=CC(C)=CCN (single isomer, unassigned) [11-cis-Ret-NH2, 11-cis-retinylamine]",binding to CRALBP,CRALBP,did not reveal any significant levels
same,IC50,isomerase,70 nM
same,inhibition of isomerization (in words),isomerase,most potent inhibitor
same,formation of all-trans-retinyl esters (LRAT activity),LRAT,not affected
CC(C=CC1=C(C)CCCC1(C)C)=CC=CC(C)CCN (centres unmarked) [VIII],lowering of potency by saturation of the C13-14 double bond,isomerase,about 10 fold
"CC1=C(/C=C/C(C)=C/C=C/C(C)=C/CO)C(C)(C)CCC1 [all-trans-retinol, reference compound]",gel filtration elution position (fractions),RPE protein(s),eluted either in the void volume or with low molecular weight compounds
same,Km,isomerase; all-trans-retinol assumed to be a substrate,0.3 µM
same,inhibition of isomerization (in words),isomerase,weakly inhibit the isomerization reaction
"CC(C=CC1=C(C)CCCC1(C)C)=CC=CC(C)=CCN (single isomer, unassigned) [9-cis-Ret-NH2, 9-cis-retinylamine]",IC50,isomerase,640 nM
"[3H]C(C=C(C)C=CC1=C(C)CCCC1(C)C)=C([3H])C(C)=CCN [[^3H]-Ret-NH2, 11,12-di[^3H]-all-trans-Ret-NH2]","gel filtration elution position (fractions), heat-denaturated proteins",RPE protein(s); control with heat-denaturated proteins,48-60
CC1=C(/C=C/C(C)=C/C=C/C(C)=C/CNO)C(C)(C)CCC1 [N-hydroxyretinylamine],inhibition of isomerization (in words),isomerase,higher IC50
CC(=O)NC/C=C(C)/C=C/C=C(C)/C=C/C1=C(C)CCCC1(C)C [N-retinylacetamide],gel filtration elution position (fractions),RPE protein(s),eluted either in the void volume or with low molecular weight compounds
same,inhibition of isomerization (in words),isomerase,weakly inhibit the isomerization reaction
same,inhibition of regeneration of vision chromophore in mice by retinylamides,[1],potent inhibitors of regeneration in mice
same,inhibition of regeneration of vision chromophore in mice by retinylamides,[1]; listed as RAN,same as free retinylamine
"CC1=C(/C=C/C(C)=C/C=C/C(C)=C/CS)C(C)(C)CCC1 [all-trans-thioretinol, reference compound]",inhibition of isomerization (in words),isomerase,"neither all-trans-thioretinol nor all-trans-13,14-dihydroretinol influenced the isomerization"
CC1=C(/C=C/C(C)=C/C=CC(C)CCN)C(C)(C)CCC1 (centres unmarked) [VII],lowering of potency by saturation of the C13-14 double bond,isomerase,about 10 fold
